Data reported in PubChem BioAssay AID1963834 (Molecular Pharmacology Branch, DTP, NCI, 2024).

Test system: 873145-292-R-J1-PDC complex spheroid viability
Assay: Anticancer human tumor 873145-292-R-J1-PDC patient-derived renal clear cell carcinoma cell line growth inhibition [POLQ]
Settings: for IC50: curve of first compound; for viability, T/C: stronger effect = lower value
Protocol: Multicellular complex tumor spheroid response to Polymerase (POL) inhibitors (novobiocin, ART-558, RP6685) in combination with a variety of drugs and investigational agents in selected tumor cell lines
The POL inhibitors (novobiocin, ART-558, and RP6685) were evaluated both individually and in combination with standard of care and investigational anticancer small molecules within a complex spheroid model of solid tumors. . Complex spheroids include a stromal component modeled by human endothelial cells (HUVEC) and fibroblasts modeled by human mesenchymal stem cells (MSCs). The concentration ranges selected for each drug and investigational agent were based upon clinically achievable concentrations if the clinical Cmax of the agent was known.
Compounds. The drugs and investigational agents: novobiocin (NSC847541), ART-558 (NSC835418), RP-6685 (NSC848927), peposertib (NSC802822), ceralasertib (NSC780249), elimusertib (NSC800525), camonsertib (NSC841442), AZD-1390 (NSC803789), olaparib (NSC753686), talazoparib (NSC767125), rucaparib (NSC756644), sotorasib (NSC818433), MRTX-1133 (NSC836407), SN-38 (NSC673596), topotecan (NSC609699), epotoside (NSC141540), doxorubicin (NSC123127), gemcitabine (NSC613327), 5-fluorouracil (NSC19893), paclitaxel (NSC125973), vemurafenib (NSC761431), MSA-2 (NSC828583), SN-011 (NSC837082), adavosertib (NSC754352), prexasertib (NSC758257), carboplatin (NSC241240) and oxaliplatin (NSC266046), were obtained from the National Cancer Institute (NCI) Developmental Therapeutics Program Chemical Repository (21). The FDA-approved anticancer drug set is available from the Developmental Therapeutics Program at https://dtp.cancer.gov/organization/dscb/obtaining/. […] The stock solutions were prepared in dimethyl sulfoxide (DMSO, Sigma-Aldrich, St. Louis, MO, cat. D2650), except for the platinum compounds which were prepared in saline (Quality Biological, Gaithersburg, MD, cat. 114-055-101), at 800-fold the tested concentration and stored at -70 degrees C prior to their use. All drugs and investigational agents were tested over a range starting from a high concentration at or near the clinical Cmax and decreasing in half-log increments. If the clinical Cmax for an agent had not been determined, the highest concentration tested was 10 microM, except for SN-38, which was tested at a high concentration of 1 microM.
Cell Culture. All cells were maintained in an incubator at 37 degrees C and 5% CO2 with 95% humidity. The PDC lines were cultured according to standard operating procedures established by the NCI PDMR (https://pdmr.cancer.gov). Table 3 of the manuscript, lists the cell lines along with the number of the three cell types plated to form the mct-spheroids and media for tumor cell growth. After thawing, all PDC lines, except 997537-175-T-J1-PDC and 415267-285-R-J2-PDC, were cultured in Matrigel-coated flasks prepared with a working solution of 1X Ham's F-12 nutrient mix, without supplementation (Thermo Fisher Scientific, cat. 11765054), 100 U/mL penicillin-streptomycin (Thermo Fisher Scientific, cat. 15140122), and 2.5% Matrigel (Corning Inc., Corning, NY, cat. 354248) for the first three passages. The two PDC lines 997537-175-T-J1-PDC and 415267-285-R-J2-PDC were cultured on uncoated flasks. The 857933-349-R-J2-PDC line was cultured in 6C/Colon 1B media containing advanced DMEM/F-12 (Thermo Fisher Scientific, cat. 12634028), 10 mM HEPES (Thermo Fisher Scientific, cat. 15630080), 1X GlutaMAX supplement (Thermo Fisher Scientific, cat. 35050061), 0.1 mg/mL primocin (InvivoGen, San Diego, CA, cat. ant-pm-2), 10% defined fetal bovine serum, heat inactivated (HyClone Laboratories Inc., Logan, UT, cat. SH30070.03HI), 50% L-WRN conditioned media (ATCC, cat. CRL-3276), 1.25 mM N-Acetyl-L-cysteine (Sigma-Aldrich, cat. A9165), 10 mM nicotinamide (Sigma-Aldrich, cat. N0636), 1X B-27 supplement (Thermo Fisher Scientific, cat. 17504044), 1X N-2 supplement (Thermo Fisher Scientific, cat. […]

[1] = second compound 0.0316 µM, first compound 0.00316 µM
[2] = second compound 0.0316 µM, first compound 0.01 µM
[3] = second compound 0.0316 µM, first compound 0.0316 µM
[4] = second compound 0.0316 µM, first compound 0.1 µM
[5] = second compound 0.1 µM, first compound 0.00316 µM
[6] = second compound 0.1 µM, first compound 0.01 µM
[7] = second compound 0.1 µM, first compound 0.0316 µM
[8] = second compound 0.1 µM, first compound 0.1 µM
[9] = second compound 0.316 µM, first compound 0.00316 µM
[10] = second compound 0.316 µM, first compound 0.01 µM
[11] = second compound 0.316 µM, first compound 0.0316 µM
[12] = second compound 0.316 µM, first compound 0.1 µM
[13] = second compound 1 µM, first compound 0.00316 µM
[14] = second compound 1 µM, first compound 0.01 µM
[15] = second compound 1 µM, first compound 0.0316 µM
[16] = second compound 1 µM, first compound 0.1 µM
[17] = second compound 3.16 µM, first compound 0.00316 µM
[18] = second compound 3.16 µM, first compound 0.01 µM
[19] = second compound 3.16 µM, first compound 0.0316 µM
[20] = second compound 3.16 µM, first compound 0.1 µM
[21] = second compound 10 µM, first compound 0.00316 µM
[22] = second compound 10 µM, first compound 0.01 µM
[23] = second compound 10 µM, first compound 0.0316 µM
[24] = second compound 10 µM, first compound 0.1 µM
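Further: spheroids exposed to compounds for 7 days before viability readout.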
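Wherever viability, T/C is given: luminescence signal used as surrogate for viable cell content; 100% = DMSO vehicle control viability.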

For COc1cccc(OCCCN)c1-c1cc(Nc2cnc(C#N)cn2)n[nH]1 + COC1C(OC(N)=O)C(O)C(Oc2ccc3c(O)c(NC(=O)c4ccc(O)c(CC=C(C)C)c4)c(=O)oc3c2C)OC1(C)C, the IC50 (second compound 0.0316 µM) was over 1000 nM, the IC50 (second compound 0.1 µM) was over 1000 nM and the IC50 (second compound 0.316 µM) was over 1000 nM. The IC50 (second compound 1 µM) was over 1000 nM, the IC50 (second compound 3.16 µM) was over 1000 nM and the IC50 (second compound 10 µM) was over 1000 nM. For the same molecule, the viability, T/C [1] was 102%, the viability, T/C [2] was 82.4% and the viability, T/C [3] was 62.8%. It also gave a viability, T/C [4] of 61.3%, a viability, T/C (second compound 0.0316 µM, first compound 0.316 µM) of 61% and a viability, T/C (second compound 0.0316 µM, first compound 1 µM) of 68.7%. It also gave a viability, T/C [5] of 106%, a viability, T/C [6] of 93.8% and a viability, T/C [7] of 71.1%. The viability, T/C [8] was 71.5%, the viability, T/C (second compound 0.1 µM, first compound 0.316 µM) was 62.1% and the viability, T/C (second compound 0.1 µM, first compound 1 µM) was 72.3%. For the same molecule, the viability, T/C [9] was 104%, the viability, T/C [10] was 84.8% and the viability, T/C [11] was 64.7%. For the same molecule, the viability, T/C [12] was 57.8%, the viability, T/C (second compound 0.316 µM, first compound 0.316 µM) was 71.1% and the viability, T/C (second compound 0.316 µM, first compound 1 µM) was 62.1%. The viability, T/C [13] was 97.9%, the viability, T/C [14] was 76.3% and the viability, T/C [15] was 62.5%. For the same molecule, the viability, T/C [16] was 62.4%, the viability, T/C (second compound 1 µM, first compound 0.316 µM) was 58.7% and the viability, T/C (second compound 1 µM, first compound 1 µM) was 72.9%. It also gave a viability, T/C [17] of 108%, a viability, T/C [18] of 72% and a viability, T/C [19] of 71.9%. It also gave a viability, T/C [20] of 63.8%, a viability, T/C (second compound 3.16 µM, first compound 0.316 µM) of 68.4% and a viability, T/C (second compound 3.16 µM, first compound 1 µM) of 68.7%. The viability, T/C [21] was 90.8%, the viability, T/C [22] was 80% and the viability, T/C [23] was 73.1%. The viability, T/C [24] was 62.6%, the viability, T/C (second compound 10 µM, first compound 0.316 µM) was 66.1% and the viability, T/C (second compound 10 µM, first compound 1 µM) was 78.3%.

With Cn1ncnc1[C@H]1c2n[nH]c(=O)c3cc(F)cc(c23)N[C@@H]1c1ccc(F)cc1 + COC1C(OC(N)=O)C(O)C(Oc2ccc3c(O)c(NC(=O)c4ccc(O)c(CC=C(C)C)c4)c(=O)oc3c2C)OC1(C)C the IC50 (second compound 0.0316 µM) was over 100 nM, the IC50 (second compound 0.1 µM) was over 100 nM and the IC50 (second compound 0.316 µM) was over 100 nM. It also gave an IC50 (second compound 1 µM) of over 100 nM, an IC50 (second compound 3.16 µM) of over 100 nM and an IC50 (second compound 10 µM) of over 100 nM. It also gave a viability, T/C (second compound 0.0316 µM, first compound 0.000316 µM) of 98.5%, a viability, T/C (second compound 0.0316 µM, first compound 0.001 µM) of 102% and a viability, T/C [1] of 87.2%. The viability, T/C [2] was 94.8%, the viability, T/C [3] was 102% and the viability, T/C [4] was 95.9%. It also gave a viability, T/C (second compound 0.1 µM, first compound 0.000316 µM) of 101%, a viability, T/C (second compound 0.1 µM, first compound 0.001 µM) of 102% and a viability, T/C [5] of 96.2%. The viability, T/C [6] was 85.9%, the viability, T/C [7] was 99.5% and the viability, T/C [8] was 84.2%. The viability, T/C (second compound 0.316 µM, first compound 0.000316 µM) was 102%, the viability, T/C (second compound 0.316 µM, first compound 0.001 µM) was 98.7% and the viability, T/C [9] was 102%. The viability, T/C [10] was 93.1%, the viability, T/C [11] was 94.8% and the viability, T/C [12] was 91.6%. The viability, T/C (second compound 1 µM, first compound 0.000316 µM) was 103%, the viability, T/C (second compound 1 µM, first compound 0.001 µM) was 99.3% and the viability, T/C [13] was 95.6%. For the same molecule, the viability, T/C [14] was 103%, the viability, T/C [15] was 94.5% and the viability, T/C [16] was 89.8%. The viability, T/C (second compound 3.16 µM, first compound 0.000316 µM) was 101%, the viability, T/C (second compound 3.16 µM, first compound 0.001 µM) was 97.7% and the viability, T/C [17] was 108%. For the same molecule, the viability, T/C [18] was 89.3%, the viability, T/C [19] was 98.8% and the viability, T/C [20] was 99.3%. The viability, T/C (second compound 10 µM, first compound 0.000316 µM) was 98.9%, the viability, T/C (second compound 10 µM, first compound 0.001 µM) was 95% and the viability, T/C [21] was 104%. For the same molecule, the viability, T/C [22] was 90.9%, the viability, T/C [23] was 95.2% and the viability, T/C [24] was 94.9%.
